Experimental data taken from US7803930B2, “Antisense modulation of apolipoprotein B-expression” (Isis Pharmaceuticals, Inc., priority 2002, dated 2010).

Experiment: Lean mice, 6 weeks (Example 66): serum lipids and liver enzymes
Format: in vivo, mouse
Details: for HDL-cholesterol / LDL-cholesterol / Liver Enzymes ALT / Liver Enzymes AST / Total cholesterol / Triglycerides: serum
Experimental: The accumulation of lipids in liver tissue was also evaluated in lean mice. Male […] mice (Charles River Laboratories (Wilmington, Mass.) at 6 to 7 weeks of age were maintained on a standard rodent diet and were treated twice weekly with intraperitoneal injections of 25 or 50 mg/kg 147764 (SEQ ID NO: 109) or 147483 (SEQ ID NO: 79) for 6 weeks. Saline treated animals served as controls. Each treatment group was comprised of 4 animals. Animals were sacrificed after the 6 week treatment period, at which point liver tissue and serum were collected.
Total cholesterol, LDL-cholesterol, HDL-cholesterol and triglycerides in serum were measured by routine clinical analysis using an Olympus Clinical Analyzer (Olympus America Inc., Melville, N.Y.). The liver enzymes ALT and […] in serum were also measured using the Olympus Clinical Analyzer.

## GTCCCTGAAGATGTCAATGC (2'-MOE gapmer, further chemistry not given here) [ISIS 147764]
25 or 50 mg/kg i.p. twice weekly
  serum lipids relative to saline-treated control animals: lowers serum lipids
25 mg/kg i.p. twice weekly
  HDL-cholesterol: 79 mg/dL
  LDL-cholesterol: 29 mg/dL
  Liver Enzymes ALT: 47 IU/L
  Liver Enzymes AST: 81 IU/L
  Total cholesterol: 114 mg/dL
  Triglycerides: 80 mg/dL
50 mg/kg i.p. twice weekly
  HDL-cholesterol: 38 mg/dL
  LDL-cholesterol: 18 mg/dL
  Liver Enzymes ALT: 48 IU/L
  Liver Enzymes AST: 101 IU/L
  Total cholesterol: 57 mg/dL
  Triglycerides: 30 mg/dL
